From ChEMBL document CHEMBL1122763, “Synthesis and biological activity of certain 3,4-disubstituted pyrazolo[3,4-d]pyrimidine nucleosides” (J Med Chem, 1984)
pEC50, pIC50: −log10 of the molar value. Activity calls are given as the source filed them. The calls are words filed in the database; no cut-off is given here.

Assays:
[1] = Toxic level was determined; format: ADME
B16 [2] = experiment: Percent inhibition of the tumor cell growth as compared to the untreated controls against B16 melanoma cells at a concentration of 10 E-4; format: functional, Mus musculus
[3] = tested on: Lewis lung carcinoma cell line; experiment: 50% inhibition of the tumor cell growth as compared to the untreated controls against Lewis lung cells; format: functional; conditions: Mus musculus, read-out: ID50 (the source's name)
L1210 [4] = experiment: Compound was evaluated for inhibition of L1210 leukemia cells; format: functional; conditions: Mus musculus, read-out: ID50 (the source's name)
P388 [5] = experiment: Compound was evaluated for inhibition of P388 lymphoid neoplasm cells; format: functional; conditions: Mus musculus, read-out: ID50 (the source's name)
Vero [6] = experiment: Virus rating was determined by comparing cytopathic effect against vero cells after infection with Herpes simplex virus-1; format: functional, Chlorocebus sabaeus
Vero [7] = experiment: Virus rating was determined by comparing cytopathic effect against vero cells after infection with Parainfluenza type 3 (para 3); format: functional, Chlorocebus sabaeus
Vero [8] = experiment: Virus rating was determined by comparing cytopathic effect against vero cells after infection with Vaccinia virus; format: functional, Chlorocebus sabaeus
Vero [9] = experiment: Virus rating was determined by comparing cytopathic effect against vero cells after infection with Vesicular stomatitis virus; format: functional, Chlorocebus sabaeus
L1210 [10] = experiment: Percent inhibition at a concentration 10 E -4 against L1210 leukemia cells; format: functional, Mus musculus
P388 [11] = experiment: Percent inhibition at a concentration 10 E -4 against P388 lymphoid neoplasm cells; Inactive; format: functional, cell-based; conditions: Mus musculus
[12] = (§1) Toxic level was determined; Non toxic; format: functional
B16 [13] = experiment: 50% inhibition of the tumor cell growth as compared to the untreated controls against B16 melanoma cells; format: functional; conditions: Mus musculus, read-out: ID50 (the source's name)
L1210 [14] = experiment: Compound was evaluated for inhibition against L1210 leukemia cells; format: functional; conditions: Mus musculus, read-out: ID50 (the source's name)
P388 [15] = experiment: Compound was evaluated for inhibition against P388 lymphoid neoplasm cells; format: functional; conditions: Mus musculus, read-out: ID50 (the source's name)
L1210 [16] = experiment: Percent inhibition at a concentration 10 E -4 against L1210 leukemia cells; Inactive; format: functional, cell-based; conditions: Mus musculus
P388 [17] = experiment: Percent inhibition at a concentration 10 E -4 against P388 lymphoid neoplasm cells; format: functional, Mus musculus
Leishmania tropica [18] = experiment: Concentration in the culture media that produced 50% inhibition of the leishmania tropica growth; Range is 76-190; format: functional; conditions: read-out: ED50 (the source's name)
Leishmania tropica [19] = experiment: Concentration in the culture media that produced 50% inhibition of the leishmania tropica growth; format: functional; conditions: for pEC50: read-out: ED50 (the source's name)
P388 [20] = experiment: Inhibition at a concentration 10 E -4 against P388 lymphoid neoplasm cells; Inactive; format: functional, cell-based; conditions: Mus musculus
B16 [21] = experiment: 50% inhibition of the tumor cell growth as compared to the untreated controls against B16 melanoma cells; Inactive; format: functional, cell-based; conditions: Mus musculus
[22] = tested on: Lewis lung carcinoma cell line; experiment: 50% inhibition of the tumor cell growth as compared to the untreated controls against Lewis lung cells; Inactive; format: functional, cell-based; conditions: Mus musculus
[23] = as §1; format: ADME

Molecule NC(=O)c1nn(C2O[C@H](CO)[C@@H](O)[C@H]2O)c2nc[nH]c(=O)c12 (some centres not stated) has a Toxic level [1] of 5 mM, an Inhibition (B16 [2]) of 37% and a pIC50 [3] of 4.70. It also gave a pIC50 (L1210 [4]) of 4.89, a pIC50 (P388 [5]) of 4.74 and a Virus rating (Vero [6]) of 0. For the same molecule, the Virus rating (Vero [7]) was 0.3, the Virus rating (Vero [8]) was 0.4 and the Virus rating (Vero [9]) was 0.
With Nc1ncnc2c1c(Br)nn2C1O[C@H](CO)[C@@H](O)[C@H]1O (some centres not stated) the Toxic level [1] was 0.5 mM, the Inhibition (L1210 [10]) was 28% and the inhibition (P388 [11]) was “inactive”. For the same molecule, the Virus rating (Vero [6]) was 0.4, the Virus rating (Vero [7]) was 0.2 and the Virus rating (Vero [8]) was 0.1. The Virus rating (Vero [9]) was 0.
Work on N#Cc1nn(C2O[C@H](CO)[C@@H](O)[C@H]2O)c2nc[nH]c(=O)c12 (some centres not stated) yielded a Toxic level [12] of 5 mM, a pIC50 (B16 [13]) of 5.15 and a pIC50 [3] of 3.60. For the same molecule, the pIC50 (L1210 [14]) was 6.70, the pIC50 (P388 [15]) was 6.34 and the Virus rating (Vero [6]) was 0.25. For the same molecule, the Virus rating (Vero [7]) was 0.32, the Virus rating (Vero [8]) was 0.55 and the Virus rating (Vero [9]) was 0.
With CSc1nn(C2O[C@H](CO)[C@@H](O)[C@H]2O)c2nc[nH]c(=O)c12 (some centres not stated) the Toxic level [1] was 5 mM, the inhibition (L1210 [16]) was “inactive” and the Inhibition (P388 [17]) was 16%. The Virus rating (Vero [6]) was 0.16, the Virus rating (Vero [7]) was 0.11 and the Virus rating (Vero [8]) was 0.
O=c1[nH]cnc2c1cnn2[C@@H]1O[C@H](CO)[C@@H](O)[C@H]1O gave a Toxic level [12] of 5 mM, a pEC50 (Leishmania tropica [18]) of 4.12 and a Virus rating (Vero [6]) of 0. The Virus rating (Vero [7]) was 0.2 and the Virus rating (Vero [9]) was 0.3.
With CNc1nn(C2O[C@H](CO)[C@@H](O)[C@H]2O)c2nc[nH]c(=O)c12 (some centres not stated) the Toxic level [1] was 1.6 mM, the inhibition (L1210 [16]) was “inactive” and the Inhibition (P388 [17]) was 20%. It also gave a Virus rating (Vero [6]) of 0, a Virus rating (Vero [7]) of 0.1 and a Virus rating (Vero [8]) of 0.2.
For N=C(NO)c1nn(C2O[C@H](CO)[C@@H](O)[C@H]2O)c2nc[nH]c(=O)c12 (some centres not stated), the Toxic level [12] was 5 mM, the ID50 (L1210 [16]) was “inactive” and the ID50 (P388 [11]) was “inactive”. For the same molecule, the Virus rating (Vero [6]) was 0.1, the Virus rating (Vero [7]) was 0.2 and the Virus rating (Vero [8]) was 0.12. The Virus rating (Vero [9]) was 0.35.
With O=Nn1c(=O)c2c(O)ncnc2n1C1O[C@H](CO)[C@@H](O)[C@H]1O (some centres not stated) the Toxic level [1] was 5 mM, the pIC50 (B16 [13]) was 4.10 and the pIC50 [3] was 5.60. For the same molecule, the pIC50 (L1210 [4]) was 6.37, the pIC50 (P388 [5]) was 6.80 and the pEC50 (Leishmania tropica [19]) was less than 3.80. It also gave a Virus rating (Vero [6]) of 0.35, a Virus rating (Vero [7]) of 0.45 and a Virus rating (Vero [8]) of 0.8. It also gave a Virus rating (Vero [9]) of 0.
For Nc1ncnc2c1c(N)nn2C1O[C@H](CO)[C@@H](O)[C@H]1O (some centres not stated), the Toxic level [12] was 5 mM, the ID50 (P388 [20]) was “inactive” and the Virus rating (Vero [6]) was 1.3. For the same molecule, the Virus rating (Vero [7]) was 0.45, the Virus rating (Vero [8]) was 0.4 and the Virus rating (Vero [9]) was 0.25.
In the case of Nc1nn(C2O[C@H](CO)[C@@H](O)[C@H]2O)c2nc[nH]c(=O)c12 (some centres not stated), the Toxic level [1] was 5 mM, the ID50 (B16 [21]) was “inactive” and the inhibition (L1210 [16]) was “inactive”. For the same molecule, the ID50 [22] was “inactive”, the inhibition (P388 [11]) was “inactive” and the pEC50 (Leishmania tropica [19]) was less than 3.75. It also gave a Virus rating (Vero [6]) of 0.15, a Virus rating (Vero [7]) of 0.3 and a Virus rating (Vero [8]) of 0.45. The Virus rating (Vero [9]) was 0.
Molecule O=c1[nH]cnc2c1c(Br)nn2C1O[C@H](CO)[C@@H](O)[C@H]1O (some centres not stated) has a Toxic level [1] of 5 mM, an Inhibition (L1210 [10]) of 25% and an Inhibition (P388 [17]) of 28%. It also gave a pIC50 (Leishmania tropica [19]; read-out: ID50 (the source's name)) of less than 4.82, a Virus rating (Vero [6]) of 0.2 and a Virus rating (Vero [7]) of 0.03.
With NC(=S)c1nn(C2O[C@H](CO)[C@@H](O)[C@H]2O)c2nc[nH]c(=O)c12 (some centres not stated) the Toxic level [1] was 5 mM, the pIC50 (B16 [13]) was 4.80 and the pIC50 [3] was 5.62. The pIC50 (L1210 [4]) was 6.44, the pIC50 (P388 [5]) was 6.22 and the Virus rating (Vero [6]) was 0. The Virus rating (Vero [7]) was 1.15 and the Virus rating (Vero [8]) was 0.4.
Work on OC[C@H]1OC(n2ncc3c(S)ncnc32)[C@H](O)[C@@H]1O (some centres not stated) yielded a pEC50 (Leishmania tropica [19]) of 4.14.
For N#Cc1nn(C2O[C@H](CO)[C@@H](O)[C@H]2O)c2ncnc(S)c12 (some centres not stated), the Toxic level [23] was 5 mM, the pIC50 (L1210 [4]) was 6.85 and the pIC50 (P388 [5]) was 6.49. For the same molecule, the Virus rating (Vero [6]) was 1, the Virus rating (Vero [7]) was 1.1 and the Virus rating (Vero [8]) was 1.24. It also gave a Virus rating (Vero [9]) of 0.56.
For N#Cc1nn(C2O[C@H](CO)[C@@H](O)[C@H]2O)c2ncnc(N)c12 (some centres not stated), the pIC50 (L1210 [4]) was 7.10.
Work on Cl.N=C(N)c1nn(C2O[C@H](CO)[C@H](O)[C@@H]2O)c2ncnc(O)c12 (some centres not stated) yielded a Toxic level [1] of 5 mM, a pIC50 (B16 [13]) of 5.42 and a pIC50 [3] of 5.19. For the same molecule, the pIC50 (L1210 [4]) was 6.64, the pIC50 (P388 [5]) was 6.43 and the Virus rating (Vero [6]) was 0.2. For the same molecule, the Virus rating (Vero [7]) was 1.1, the Virus rating (Vero [8]) was 0.31 and the Virus rating (Vero [9]) was 0.
